# Target: T1, recombinant 15-PGDH (Homo sapiens, UniProt P15428)
# T1 sequence (P15428 1-266): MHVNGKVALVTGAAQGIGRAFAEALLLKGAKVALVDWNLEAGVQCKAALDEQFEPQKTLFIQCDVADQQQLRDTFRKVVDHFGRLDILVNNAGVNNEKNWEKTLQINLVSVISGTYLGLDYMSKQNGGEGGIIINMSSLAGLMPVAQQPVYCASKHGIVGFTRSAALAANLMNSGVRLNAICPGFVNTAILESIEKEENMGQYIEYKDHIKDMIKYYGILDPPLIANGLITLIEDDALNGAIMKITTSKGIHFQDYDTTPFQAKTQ
# Assay type: biochemical
# Conditions: recombinant human 15-PGDH, in vitro; read-out: PDGH Assay-IC50
# Source text: The Recombinant 15-PGDH is human unless otherwise specified.
row,SMILES,IC50
1,Nc1ncc(-c2cc(C(F)(F)F)c3c(N)c([S+]([O-])C4CCC4)sc3n2)cn1 (stereo not drawn) [Example 429],2.5 to 10 nM
2,COCC[S+]([O-])c1sc2nc(-c3cnc(N)nc3)nc(-c3ccccc3)c2c1N (stereo not drawn) [Example 430],< 2.5 nM
3,Nc1c([S+]([O-])C2CCC2)sc2nc(-c3cnc(NCCO)nc3)nc(-c3ccccc3)c12 (stereo not drawn) [Example 431],2.5 to 10 nM
4,COCC[S+]([O-])c1sc2nc(-c3cnc(NCCO)nc3)nc(-c3ccccc3)c2c1N (stereo not drawn) [Example 432],2.5 to 10 nM
5,COCC[S@@+]([O-])c1sc2nc(-c3cnc4nn(C)cc4c3)nc(-c3ccccc3)c2c1N [Example 433],< 2.5 nM
6,COCC[S@+]([O-])c1sc2nc(-c3cnc4nn(C)cc4c3)nc(-c3ccccc3)c2c1N [Example 434],≥ 10 nM

# Reference: patent publication US12336982B2 (RODEO THERAPEUTICS CORPORATION, priority 2018, dated 2025)
